Data as given in article PMC6272684, “Synthesis, Antiproliferative and Antifungal Activities of 1,2,3-Triazole-Substituted Carnosic Acid and Carnosol Derivatives” (Molecules, 2015).
≈ marks a conversion by molar mass, not a printed value.

Experiments:
C. neoformans ATCC 32264 = assay: Antifungal broth microdilution (CLSI M27-A3), growth inhibition; type: cell-based, Cryptococcus neoformans
Method: (§1) The antifungal properties of compounds 1–24 against two clinical important fungal species, C. albicans ATCC 10231 and C. neoformans ATCC 32264 were investigated. Results were expressed as the percentages of inhibition of each fungus in the range 250–3.9 μg∙mL^−1 by using the standardized microbroth dilution method M-27A3 of Clinical and Laboratory Standards Institute which assures reliable and reproducible results.
(§2) For the antifungal evaluation, standardized strains from the American Type Culture Collection (ATCC), Rockville, MD, USA, were used. The microorganisms included yeasts (Candida albicans ATCC 10231 and Cryptococcus neoformans ATCC 32264). Strains were grown on Sabouraud-chloramphenicol agar slants for 48 h at 30 °C, maintained on slopes of Sabouraud-dextrose agar (SDA, Oxoid), and subcultured every 15 days to prevent pleomorphic transformations. Inocula of cell or spore suspensions were obtained according to reported procedures and adjusted to 1–5 × 10^3 cells/spores with colony forming units (CFU)/mL [29].
(§3) Broth microdilution techniques were performed in 96-well microplates according to the Clinical and Laboratory Standards Institute Reference Method for Broth Dilution Antifungal Susceptibility Testing of Yeasts, Approved Standard M27-A3 [29]. For the assay, compound test wells (CTWs) were prepared with stock solutions of each compound in DMSO (maximum concentration ≤1%), diluted with RPMI-1640, to final concentrations of 250–3.9 μg∙mL^−1. An inoculum suspension (100 μL) was added to each well (final volume in the well = 200 μL). A growth control well (GCW) (containing medium, inoculum, and the same amount of DMSO used in a CTW, but compound-free) and a sterility control well (SCW) (sample, medium, and sterile water instead of inoculum) were included for each fungus tested. Microtiter trays were incubated in a moist, dark chamber at 30 °C for 48 h for both yeasts. Microplates were read in a VERSA Max microplate reader (Molecular Devices, Sunnyvale, CA, USA). Amphotericin B (Sigma-Aldrich) was used as positive control. Tests were performed in triplicate. Reduction of growth for each compound concentration was calculated as follows: % of inhibition = 100 − (OD 405 CTW − OD 405 SCW)/(OD 405 GCW − OD 405 SCW). The means ± SEM were the results of triplicate tests. Three endpoints were defined from the assay explained above and the dose-response curves. Minimum Inhibitory concentration (MIC) resulting in total fungal growth inhibition was named MIC100 while MIC50 was defined as the minimum concentration that inhibits 50% of the fungal growth.

C. albicans ATCC 10231 = assay: as above; type: cell-based, Candida albicans
Method: as §1, §2, §3

MIC50 (minimum concentration to inhibit 50% of fungal growth), C. neoformans (C. neoformans ATCC 32264; C. neoformans ATCC 32264) [µg/mL]	MIC50 (minimum concentration to inhibit 50% of fungal growth), C. albicans (C. albicans ATCC 10231; C. albicans ATCC 10231) [µg/mL]	Structure (SMILES)	Inhibition percentage against C. neoformans ATCC 32264 (C. neoformans ATCC 32264; 3.9 μg∙mL^−1, 48 h) [%]	Inhibition percentage against C. neoformans ATCC 32264 (C. neoformans ATCC 32264; 7.8 μg∙mL^−1, 48 h) [%]	Inhibition percentage against C. neoformans ATCC 32264 (C. neoformans ATCC 32264; 15.6 μg∙mL^−1, 48 h) [%]	Inhibition percentage against C. neoformans ATCC 32264 (C. neoformans ATCC 32264; 31.2 μg∙mL^−1, 48 h) [%]	Inhibition percentage against C. neoformans ATCC 32264 (C. neoformans ATCC 32264; 62.5 μg∙mL^−1, 48 h) [%]	Inhibition percentage against C. neoformans ATCC 32264 (C. neoformans ATCC 32264; 125 μg∙mL^−1, 48 h) [%]	Inhibition percentage against C. neoformans ATCC 32264 (C. neoformans ATCC 32264; 250 μg∙mL^−1, 48 h) [%]	Inhibition percentage against C. albicans ATCC 10231 (C. albicans ATCC 10231; 3.9 μg∙mL^−1, 48 h) [%]	Inhibition percentage against C. albicans ATCC 10231 (C. albicans ATCC 10231; 7.8 μg∙mL^−1, 48 h) [%]	Inhibition percentage against C. albicans ATCC 10231 (C. albicans ATCC 10231; 15.6 μg∙mL^−1, 48 h) [%]	Inhibition percentage against C. albicans ATCC 10231 (C. albicans ATCC 10231; 62.5 μg∙mL^−1, 48 h) [%]	Inhibition percentage against C. albicans ATCC 10231 (C. albicans ATCC 10231; 125 μg∙mL^−1, 48 h) [%]	Inhibition percentage against C. albicans ATCC 10231 (C. albicans ATCC 10231; 250 μg∙mL^−1, 48 h) [%]	Inhibition percentage against C. albicans ATCC 10231 (C. albicans ATCC 10231; 31. μg∙mL^−1, 48 h) [%]	also measured
		C[C@@H]1[C@H](O)[C@@H](C)/C=C/C=C/C=C/C=C/C=C/C=C/C=C/[C@H](O[C@@H]2O[C@H](C)[C@@H](O)[C@H](N)[C@@H]2O)C[C@@H]2O[C@](O)(C[C@@H](O)C[C@@H](O)[C@H](O)CC[C@@H](O)C[C@@H](O)CC(=O)O[C@H]1C)C[C@H](O)[C@H]2C(=O)O [Amph B, amphotericin B, reference compound]															inhibition at 3.9 µg/mL (C. neoformans ATCC 32264; Cryptococcus neoformans, ATCC32264, 3.9 μg∙mL^−1, 48 h, read-out: Inhibition percentage against C. neoformans ATCC 32264): 100%; inhibition at 7.8 µg/mL (C. neoformans ATCC 32264; Cryptococcus neoformans, ATCC32264, 7.8 μg∙mL^−1, 48 h, read-out: Inhibition percentage against C. neoformans ATCC 32264): 100%; inhibition at 15.6 µg/mL (C. neoformans ATCC 32264; Cryptococcus neoformans, ATCC32264, 15.6 μg∙mL^−1, 48 h, read-out: Inhibition percentage against C. neoformans ATCC 32264): 100%; inhibition at 31.2 µg/mL (C. neoformans ATCC 32264; Cryptococcus neoformans, ATCC32264, 31.2 μg∙mL^−1, 48 h, read-out: Inhibition percentage against C. neoformans ATCC 32264): 100%; inhibition at 62.5 µg/mL (C. neoformans ATCC 32264; Cryptococcus neoformans, ATCC32264, 62.5 μg∙mL^−1, 48 h, read-out: Inhibition percentage against C. neoformans ATCC 32264): 100%; inhibition at 125 µg/mL (C. neoformans ATCC 32264; Cryptococcus neoformans, ATCC32264, 125 μg∙mL^−1, 48 h, read-out: Inhibition percentage against C. neoformans ATCC 32264): 100%; inhibition at 250 µg/mL (C. neoformans ATCC 32264; Cryptococcus neoformans, ATCC32264, 250 μg∙mL^−1, 48 h, read-out: Inhibition percentage against C. neoformans ATCC 32264): 100%; MIC50 (C. neoformans ATCC 32264; Cryptococcus neoformans, ATCC32264, C. neoformans ATCC 32264, read-out: MIC50 (minimum concentration to inhibit 50% of fungal growth), C. neoformans): 0.5 µg/mL (≈ 0.541 µM); inhibition at 3.9 µg/mL (C. albicans ATCC 10231; Candida albicans, ATCC10231, 3.9 μg∙mL^−1, 48 h, read-out: Inhibition percentage against C. albicans ATCC 10231): 100%; inhibition at 7.8 µg/mL (C. albicans ATCC 10231; Candida albicans, ATCC10231, 7.8 μg∙mL^−1, 48 h, read-out: Inhibition percentage against C. albicans ATCC 10231): 100%; inhibition at 15.6 µg/mL (C. albicans ATCC 10231; Candida albicans, ATCC10231, 15.6 μg∙mL^−1, 48 h, read-out: Inhibition percentage against C. albicans ATCC 10231): 100%; inhibition at 62.5 µg/mL (C. albicans ATCC 10231; Candida albicans, ATCC10231, 62.5 μg∙mL^−1, 48 h, read-out: Inhibition percentage against C. albicans ATCC 10231): 100%; inhibition at 125 µg/mL (C. albicans ATCC 10231; Candida albicans, ATCC10231, 125 μg∙mL^−1, 48 h, read-out: Inhibition percentage against C. albicans ATCC 10231): 100%; inhibition at 250 µg/mL (C. albicans ATCC 10231; Candida albicans, ATCC10231, 250 μg∙mL^−1, 48 h, read-out: Inhibition percentage against C. albicans ATCC 10231): 100%; MIC50 (C. albicans ATCC 10231; Candida albicans, ATCC10231, C. albicans ATCC 10231, read-out: MIC50 (minimum concentration to inhibit 50% of fungal growth), C. albicans): 0.25 µg/mL (≈ 0.271 µM)
250	>250	COC(=O)C12CCCC(C)(C)C1CCc1cc(C(C)C)c(OC(=O)CCCc3cn(CSc4ccccc4)nn3)c(OC(=O)CCCc3cn(CSc4ccccc4)nn3)c12 (centres unmarked) [Compound 10, Methyl(11,12-O-(4-(((1-phenylthio)methyl)-1H-1,2,3-triazol-4-yl)-butanoyloxy)-abieta-8,11,13-triene)-20-oate]	0.0	11.3 ± 0.5	14.4 ± 0.8	18.6 ± 1.5	19.1 ± 1.8	42.9 ± 2.0	63.9 ± 2.9	1.3 ± 1.3	2.8 ± 0.1	3.9 ± 0.9	10.1 ± 0.9	18.8 ± 0.4	35.0 ± 0.8	5.1 ± 1.3	
>250	>250	CC(C)c1cc2c(c(OC(=O)CCCc3cn(Cc4ccc([N+](=O)[O-])cc4)nn3)c1OC(=O)CCCc1cn(Cc3ccc([N+](=O)[O-])cc3)nn1)C13CCCC(C)(C)C1CC2OC3=O (stereo not drawn) [Compound 24, (7β)-11,12-O-(4-(1-(4-nitrobenzyl)-1H-1,2,3-triazol-4-yl)-butanoyloxy)-7,20-epoxyabieta-8,11,13-trien-20-one]	4.9 ± 1.4	15.4 ± 0.1	21.0 ± 0.1	24.3 ± 0.5	27.3 ± 0.7	31.7 ± 1.6	45.8 ± 2.0	0.0	0.0	0.0	4.8 ± 0.6	14.3 ± 2.0	29.8 ± 1.9	3.4 ± 0.5	
